Results reported in ChEMBL document CHEMBL1201862, “PubChem BioAssay data set” (2004).
Calls of active or inactive are those of the source.

Legend:
[1] = growth suppression of beta-catenin-knockout colon cells, dose response, cell-based, HCT116, human colon tumor (AID 1045); type: functional;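 further: HCT116 colon tumor cells with beta catenin knocked out; cells exposed to compound for 60 hours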
Protein skinhead-1 = target: T1, Protein skinhead-1 (Caenorhabditis elegans, UniProt P34707); type: functional
T1 sequence (P34707 whole entry): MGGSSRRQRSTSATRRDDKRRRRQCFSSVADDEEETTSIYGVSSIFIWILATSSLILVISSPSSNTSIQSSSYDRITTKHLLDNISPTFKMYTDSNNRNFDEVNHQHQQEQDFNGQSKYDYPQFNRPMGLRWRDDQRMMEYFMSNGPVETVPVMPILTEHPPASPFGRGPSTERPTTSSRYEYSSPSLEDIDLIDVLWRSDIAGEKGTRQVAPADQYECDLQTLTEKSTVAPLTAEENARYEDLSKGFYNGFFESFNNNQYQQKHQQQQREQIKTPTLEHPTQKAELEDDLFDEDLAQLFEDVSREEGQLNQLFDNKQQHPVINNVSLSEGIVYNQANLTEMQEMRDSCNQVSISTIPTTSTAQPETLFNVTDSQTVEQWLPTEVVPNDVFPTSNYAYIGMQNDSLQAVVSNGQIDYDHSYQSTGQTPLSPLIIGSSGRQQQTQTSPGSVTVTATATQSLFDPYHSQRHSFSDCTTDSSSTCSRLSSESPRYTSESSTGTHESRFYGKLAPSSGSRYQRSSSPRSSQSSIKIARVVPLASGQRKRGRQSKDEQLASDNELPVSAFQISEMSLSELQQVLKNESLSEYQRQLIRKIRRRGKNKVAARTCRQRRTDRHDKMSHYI

[2] = insulin promoter down-regulators in MIN6 cells, imaging, high-content screening, mouse beta cells (AID 1628); type: functional
[3] = cytotoxicity in MIN6 insulinoma cells, dose response, cytotoxicity control, cell-based, mouse insulinoma (AID 2122); type: functional;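 further: confirmatory high-throughput counterscreen run to flag cytotoxic compounds; mouse MIN-6 beta cells carrying an insulin promoter eGFP reporter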
[4] = growth suppression of PTEN-null colon cells, dose response, cell-based, HCT116 PTEN knockout (AID 1047); type: functional;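 further: HCT116 colon tumor cells with PTEN knocked out; cells exposed to compound for 60 hours before readout; potency for loss of cell viability measured by luminescence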
[5] = target: Induced myeloid leukemia cell differentiation protein Mcl-1 (Homo sapiens, UniProt Q07820); type: functional
Induced myeloid leukemia cell differentiation protein Mcl-1, sequence (Q07820 whole entry): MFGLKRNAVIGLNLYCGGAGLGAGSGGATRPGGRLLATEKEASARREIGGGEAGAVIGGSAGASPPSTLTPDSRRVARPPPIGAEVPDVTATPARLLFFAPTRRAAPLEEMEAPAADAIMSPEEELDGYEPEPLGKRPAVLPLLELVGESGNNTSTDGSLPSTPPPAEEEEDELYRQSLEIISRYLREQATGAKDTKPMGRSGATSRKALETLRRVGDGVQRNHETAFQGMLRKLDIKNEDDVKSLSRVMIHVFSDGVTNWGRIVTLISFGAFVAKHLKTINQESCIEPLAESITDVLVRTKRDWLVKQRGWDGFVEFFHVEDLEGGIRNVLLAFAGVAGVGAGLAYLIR

[6] = target: Glucose-6-phosphate 1-dehydrogenase (Homo sapiens, UniProt P11413); experiment: human G6PD enzyme inhibitors, dose response, selectivity assay for P. falciparum G6PD inhibitor project, biochemical, fluorescence (AID 504792); type: functional
Glucose-6-phosphate 1-dehydrogenase, sequence (P11413 whole entry): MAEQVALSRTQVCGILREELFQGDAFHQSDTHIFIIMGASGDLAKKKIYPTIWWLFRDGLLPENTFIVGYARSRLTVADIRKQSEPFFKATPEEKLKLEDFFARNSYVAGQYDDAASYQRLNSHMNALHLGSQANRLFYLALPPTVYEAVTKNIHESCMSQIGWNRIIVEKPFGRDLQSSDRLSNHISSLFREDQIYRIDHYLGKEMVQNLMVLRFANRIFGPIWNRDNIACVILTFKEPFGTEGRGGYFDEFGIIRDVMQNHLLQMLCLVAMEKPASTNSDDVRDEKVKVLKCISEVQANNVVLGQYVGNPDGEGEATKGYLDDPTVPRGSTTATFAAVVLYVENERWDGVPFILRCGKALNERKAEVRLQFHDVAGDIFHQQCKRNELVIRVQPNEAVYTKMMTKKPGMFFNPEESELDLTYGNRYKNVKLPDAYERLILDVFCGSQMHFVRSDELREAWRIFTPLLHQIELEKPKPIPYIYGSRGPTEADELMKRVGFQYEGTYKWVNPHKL

Vero [7] = experiment: cells; type: functional; conditions: Chlorocebus sabaeus
[8] = Luminescence Cell-Based Dose Retest to Confirm Inhibitors of Cancer Stem Cells. [Related pubchem assays (depositor defined):AID2717, AID2721]; type: functional; conditions: Homo sapiens
Vero [9] = experiment: cells; type: functional, cell-based; conditions: Chlorocebus sabaeus
Estrogen receptor beta [10] = target: T2, Estrogen receptor beta (Homo sapiens, UniProt Q92731);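 further: recombinant ER-beta bound to coactivator SRC1 peptide in presence of estradiol agonist; inhibitors block coactivator peptide binding and lower the FRET signal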
T2 sequence (Q92731 whole entry): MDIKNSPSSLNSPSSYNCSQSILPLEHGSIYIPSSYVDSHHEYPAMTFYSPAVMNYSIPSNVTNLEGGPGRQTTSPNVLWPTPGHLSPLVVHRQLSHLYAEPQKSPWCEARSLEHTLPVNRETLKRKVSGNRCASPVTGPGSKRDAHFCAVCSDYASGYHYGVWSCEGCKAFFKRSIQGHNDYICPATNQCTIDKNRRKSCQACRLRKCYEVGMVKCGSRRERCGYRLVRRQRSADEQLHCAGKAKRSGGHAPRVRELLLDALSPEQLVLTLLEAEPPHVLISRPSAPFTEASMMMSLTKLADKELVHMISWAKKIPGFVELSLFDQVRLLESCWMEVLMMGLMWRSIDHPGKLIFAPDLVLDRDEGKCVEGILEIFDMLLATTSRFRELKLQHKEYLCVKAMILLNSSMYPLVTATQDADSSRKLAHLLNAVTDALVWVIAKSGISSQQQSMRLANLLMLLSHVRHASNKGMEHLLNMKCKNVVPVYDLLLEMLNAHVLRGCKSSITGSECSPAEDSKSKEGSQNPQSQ

Estrogen receptor beta [11] = target: T2, Estrogen receptor beta; experiment: ERβ–SRC-3 coactivator interaction inhibitors, confirmation, orthogonal assay, biochemical, ELISA, streptavidin-HRP readout (AID 1060)
[12] = THP-1 cell cytotoxicity, dose response, cytotoxicity control for non-replicating M. tuberculosis project (AID 489025); type: functional
cells = type: functional
[13] = target: T3, Histone-lysine N-methyltransferase NSD2 (Homo sapiens, UniProt O96028); type: biochemical
T3 sequence (O96028 whole entry): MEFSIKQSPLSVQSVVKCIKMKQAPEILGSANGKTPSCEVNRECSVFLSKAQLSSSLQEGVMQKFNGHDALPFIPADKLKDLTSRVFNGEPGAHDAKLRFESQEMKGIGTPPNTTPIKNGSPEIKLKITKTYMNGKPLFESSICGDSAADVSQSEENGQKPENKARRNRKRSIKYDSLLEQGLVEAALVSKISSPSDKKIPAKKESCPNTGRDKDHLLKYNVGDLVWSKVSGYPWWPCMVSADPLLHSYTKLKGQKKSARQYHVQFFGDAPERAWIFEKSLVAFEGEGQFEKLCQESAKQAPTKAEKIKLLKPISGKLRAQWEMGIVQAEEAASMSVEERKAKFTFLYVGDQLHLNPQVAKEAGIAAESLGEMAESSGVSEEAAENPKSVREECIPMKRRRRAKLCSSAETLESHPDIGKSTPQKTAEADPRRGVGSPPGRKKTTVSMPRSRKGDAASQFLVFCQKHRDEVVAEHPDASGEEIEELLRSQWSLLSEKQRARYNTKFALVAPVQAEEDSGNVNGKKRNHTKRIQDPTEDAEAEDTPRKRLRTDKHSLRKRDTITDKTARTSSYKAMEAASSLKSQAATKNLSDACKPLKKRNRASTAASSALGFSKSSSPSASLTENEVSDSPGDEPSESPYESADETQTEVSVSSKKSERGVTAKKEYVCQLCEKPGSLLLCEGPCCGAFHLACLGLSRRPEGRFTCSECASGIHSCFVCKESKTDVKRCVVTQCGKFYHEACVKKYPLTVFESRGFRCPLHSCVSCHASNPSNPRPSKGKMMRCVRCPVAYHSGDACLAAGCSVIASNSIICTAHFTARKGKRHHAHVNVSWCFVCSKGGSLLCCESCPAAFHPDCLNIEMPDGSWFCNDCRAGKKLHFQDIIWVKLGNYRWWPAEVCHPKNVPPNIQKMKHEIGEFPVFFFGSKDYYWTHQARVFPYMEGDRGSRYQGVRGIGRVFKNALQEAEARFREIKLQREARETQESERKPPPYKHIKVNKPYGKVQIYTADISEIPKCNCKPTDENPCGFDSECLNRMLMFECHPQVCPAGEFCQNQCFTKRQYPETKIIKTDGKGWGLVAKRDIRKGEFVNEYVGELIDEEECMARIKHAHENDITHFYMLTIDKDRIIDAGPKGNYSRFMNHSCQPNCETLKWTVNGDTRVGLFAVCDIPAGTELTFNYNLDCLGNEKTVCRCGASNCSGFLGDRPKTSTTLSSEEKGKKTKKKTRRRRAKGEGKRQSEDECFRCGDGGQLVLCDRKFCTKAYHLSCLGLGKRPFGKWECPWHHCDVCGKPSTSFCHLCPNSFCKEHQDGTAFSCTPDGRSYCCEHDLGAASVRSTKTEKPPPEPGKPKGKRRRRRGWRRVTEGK

A-375 = experiment: A375 melanoma cell viability reduction, dose response, counter-screen for MITF modulator project, cherry-pick samples, set 2 (AID 540335); type: functional, cell-based; conditions: Homo sapiens
[14] = target: FAD-linked sulfhydryl oxidase ALR (Homo sapiens, UniProt P55789); experiment: inhibitors of human ALR sulfhydryl oxidase, dose response, biochemical, H2O2 detection, luminescence, cherry-pick (AID 493248)
FAD-linked sulfhydryl oxidase ALR, sequence (P55789 whole entry): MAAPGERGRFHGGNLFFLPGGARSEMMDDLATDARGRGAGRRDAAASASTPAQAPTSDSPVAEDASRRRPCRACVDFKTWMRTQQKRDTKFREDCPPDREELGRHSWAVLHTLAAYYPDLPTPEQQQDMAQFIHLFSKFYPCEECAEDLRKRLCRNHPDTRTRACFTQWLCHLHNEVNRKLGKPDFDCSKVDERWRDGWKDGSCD

[15] = target: T4, Microphthalmia-associated transcription factor (Homo sapiens, UniProt O75030); experiment: TRPM1 promoter luciferase signal decrease, dose response, MITF inhibitor project, cell-based, SK-MEL-5, cherry-picked, set 3 (AID 493073); type: functional
T4 sequence (O75030 whole entry): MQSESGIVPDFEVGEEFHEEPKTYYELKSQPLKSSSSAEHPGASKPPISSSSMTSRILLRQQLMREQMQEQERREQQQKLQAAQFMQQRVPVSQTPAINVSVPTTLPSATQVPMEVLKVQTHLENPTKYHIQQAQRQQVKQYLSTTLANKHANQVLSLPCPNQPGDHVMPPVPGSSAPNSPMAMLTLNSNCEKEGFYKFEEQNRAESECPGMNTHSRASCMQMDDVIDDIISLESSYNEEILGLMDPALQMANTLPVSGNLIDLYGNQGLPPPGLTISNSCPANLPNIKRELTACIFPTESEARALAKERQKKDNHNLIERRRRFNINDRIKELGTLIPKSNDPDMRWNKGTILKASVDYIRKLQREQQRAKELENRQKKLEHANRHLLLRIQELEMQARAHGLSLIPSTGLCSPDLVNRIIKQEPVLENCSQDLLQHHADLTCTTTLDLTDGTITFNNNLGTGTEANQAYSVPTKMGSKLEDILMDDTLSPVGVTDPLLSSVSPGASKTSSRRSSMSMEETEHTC

[16] = target: Dual specificity protein kinase CLK1 (Homo sapiens, UniProt P49759); experiment: CLK1 kinase inhibitors, off-target check, dose response, selectivity assay for Dyrk1A inhibitor project, biochemical, cherry-picked samples (AID 588811)
Dual specificity protein kinase CLK1, sequence (P49759 whole entry): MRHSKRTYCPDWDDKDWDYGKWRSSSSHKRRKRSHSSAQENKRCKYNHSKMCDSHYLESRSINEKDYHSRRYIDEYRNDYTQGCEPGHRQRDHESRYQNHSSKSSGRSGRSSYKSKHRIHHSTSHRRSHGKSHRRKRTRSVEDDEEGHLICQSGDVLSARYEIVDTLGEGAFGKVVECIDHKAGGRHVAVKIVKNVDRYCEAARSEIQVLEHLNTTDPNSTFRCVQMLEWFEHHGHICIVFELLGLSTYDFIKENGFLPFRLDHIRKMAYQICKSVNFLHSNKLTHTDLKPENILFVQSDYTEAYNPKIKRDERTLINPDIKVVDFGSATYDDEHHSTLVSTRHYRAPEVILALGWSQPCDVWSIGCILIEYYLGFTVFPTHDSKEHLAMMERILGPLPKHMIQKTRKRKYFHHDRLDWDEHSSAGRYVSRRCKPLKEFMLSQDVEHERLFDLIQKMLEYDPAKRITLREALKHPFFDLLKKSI

**Q.** Which EC50 [1] does the source give for Cc1ccc(OCCCCn2cnc3ccccc32)c(C)c1 here?
**A.** Its EC50 is 41.2 µM (active).

**Q.** And the IC50 (Protein skinhead-1)?
**A.** Its IC50 is > 100 µM (inactive).

**Q.** And the IC50 [2]?
**A.** The IC50 was 2.29 µM (active).

**Q.** What about the IC50 [3] of the same molecule?
**A.** The IC50 was 1.76 µM (active).

**Q.** And the EC50 [4]?
**A.** The EC50 was 70.8 µM (active).

**Q.** Which IC50 [5] does the source give for Cc1ccc(/C=C2\C(=O)NC(=S)N(c3ccccc3F)C2=O)s1 here?
**A.** The IC50 was 4.91 µM (active).

**Q.** And the IC50 [6]?
**A.** The IC50 was > 80 µM (inactive).

**Q.** With COc1cc(/C=C/C(=O)c2ccc(NS(=O)(=O)c3ccc(C)cc3)cc2)cc(OC)c1O as the molecule, how does the CC50 (Vero [7]) read?
**A.** The CC50 was 14.5 µM (active).

**Q.** What about the AC50 [8] of the same molecule?
**A.** Its AC50 is 2.27 µM (active).

**Q.** What about the IC50 (Vero [9]) of the same molecule?
**A.** The IC50 was > 25 µM (active).

**Q.** For N=c1c(C(=O)NCc2ccco2)cc2c(=O)n3ccccc3nc2n1CCc1ccccc1, which IC50 (Estrogen receptor beta [10]) is on record?
**A.** Its IC50 is > 50 µM (not active).

**Q.** And the IC50 (Estrogen receptor beta [11])?
**A.** The IC50 was > 50 µM (not active).

**Q.** What about the IC50 [2] of the same molecule?
**A.** Its IC50 is 0.861 µM (active).

**Q.** And the IC50 [3]?
**A.** Its IC50 is 12.4 µM (inactive).

**Q.** Which CC50 [12] does the source give for CCc1ccc(N2C(=O)NC(=O)/C(=C\C=C\c3ccco3)C2=O)cc1 here?
**A.** The CC50 was > 40 µM (active).

**Q.** And the IC50 (cells)?
**A.** Its IC50 is 19.6 µM (active).

**Q.** What about the AC50 [13] of the same molecule?
**A.** The AC50 was > 20 µM (inactive).

**Q.** What about the AC50 (A-375) of the same molecule?
**A.** The AC50 was 21.6 µM (active).

**Q.** What about the AC50 [14] of the same molecule?
**A.** The AC50 was 4.24 µM (active).

**Q.** What about the AC50 [8] of the same molecule?
**A.** The AC50 was 1.96 µM (active).

**Q.** What about the AC50 [15] of the same molecule?
**A.** The AC50 was 7.53 µM (active).

**Q.** For CCOC(=O)c1ccc(-c2ccc3ncnc(N(C)Cc4sccc4C)c3c2)o1, which AC50 [16] is on record?
**A.** Its AC50 is 1.47 µM (active).

**Q.** For Cc1occc1CNc1ncnc2ccc(-c3ccc4c(c3)OCO4)cc12, which AC50 [16] is on record?
**A.** The AC50 was 0.0118 µM (active).
